The record followed here is patent publication US12114657B1, “Compositions for use in animal housing” (priority 2017, dated 2024).

For the test the following is noted: in vivo.

For `OO` [hydrogen peroxide], the “antibiotics use as fraction of the normal dose” value was “⅛” and the effect on mortality result is “reduced mortality”.
